Experimental data as given in patent US20110060156A1, “Pyruvate Derivatives with Neuroprotective Effect, Process for Preparing the Same and Pharmaceutical Composition Comprising the Same” (S.H. PHARMA., LTD., priority 2008, published 2011).
Structures can show the parent of a compound that is named as a salt. Blank lines part the entries; values can stand above or below the compound they belong to.

Experiments:
[1] = tested on: model of focal ischemic stroke (middle cerebral artery occlusion, MCAO); test: Cerebral infarction inhibition in animal model of focal ischemic stroke (MCAO 1 hour, TTC staining, infarct volume); assay type: in vivo, rat; details: for inhibition effect of cerebral infarction: 30 minutes before MCAO (1 hour)
Procedure: A model of focal ischemic stroke in the rat according to the Longa's method (1989) was used. The animal model of stroke was established by occluding the middle cerebral artery (MCA) for 1 hour using nylon suture (middle cerebral artery occlusion, MCAO). In order to investigate the effect of pyruvate derivatives according to the present invention on cerebral ischemia, a rat was decapitated after reperfusion. The whole brain was sliced into 2 mm-thick coronal slices. The slices were immediately stained by immersing in 1% 2,3,5-triphenyl tetrazolium chloride (TTC). After keeping in 4% paraformaldehyde solution at 37° C. for 15 minutes, the brain slices were subjected to measurement and analysis using Quantity One software (Bio-Rad, Hercules, Calif., USA).

[2] = tested on: stroke animal model (ischemia-reperfusion); details: cited from earlier work
[3] = 1 mg/kg intravenously, 6 hours after reperfusion
[4] = 1 mg/kg intravenously, 12 hours after reperfusion
[5] = 5 mg/kg intravenously, 6 hours after reperfusion
[6] = 5 mg/kg intravenously, 12 hours after reperfusion
[7] = 10 mg/kg intravenously, 6 hours after reperfusion
[8] = 10 mg/kg intravenously, 12 hours after reperfusion

melting point: 163 °C
SMILES: CC(=O)C(=O)Oc1cc(C(F)(F)F)ccc1C(=O)O (as salt: potassium) [2-(2-oxopropanoyloxy)-4-(trifluoromethyl)benzoic acid]

SMILES: CC(=O)C(=O)Oc1cc(C(F)(F)F)ccc1C(=O)O [2-(2-oxopropanoyloxy)-4-(trifluoromethyl)benzoic acid]
inhibition effect of cerebral infarction as compared to the control group ([1]; 5 mg/kg intravenously, MCAO 1 hour, time not stated in b180 (FIG. 8: 6 hours following MCAO)): 71.3%

melting point: 128 °C
SMILES: CC(=O)C(=O)Oc1ccc(NCc2c(F)c(F)c(C(F)(F)F)c(F)c2F)cc1C(=O)O [2-(2-oxopropanoyloxy)-5-(2,3,5,6-tetrafluoro-4-(trifluoromethyl)benzylamino)benzoic acid]
inhibition effect of cerebral infarction ([1]; 1 mg/kg intravenously): 20.2%
change in the infarct volume [1, 3]: no change
change in the infarct volume [1, 4]: no change
inhibition effect of cerebral infarction ([1]; 5 mg/kg intravenously): 90.9%
infarct volume reduced to, as compared to the control group [1, 5]: 24.5%
infarct volume reduced to, as compared to the control group [1, 6]: 56.8%
inhibition effect of cerebral infarction ([1]; 10 mg/kg intravenously): 88.4%
infarct volume reduced to, as compared to the control group [1, 7]: 33.3%
infarct volume reduced to, as compared to the control group [1, 8]: 62.4%

SMILES: CC(=O)C(=O)Oc1ccccc1C(=O)O [2-(2-oxopropanoyloxy)benzoic acid]
inhibition effect of cerebral infarction ([1]; 1 mg/kg intravenously): 42.0%
change in the infarct volume [1, 3]: no change
change in the infarct volume [1, 4]: no change
inhibition effect of cerebral infarction ([1]; 5 mg/kg intravenously): 90.2%
infarct volume reduced to, as compared to the control group [1, 5]: 47.5%
infarct volume reduced to, as compared to the control group [1, 6]: 57.4%
inhibition effect of cerebral infarction ([1]; 10 mg/kg intravenously): 89.5%
infarct volume reduced to, as compared to the control group [1, 7]: 26.6%
infarct volume reduced to, as compared to the control group [1, 8]: 64.3%

SMILES: CC(=O)C(=O)NCCC(Oc1ccc(C(F)(F)F)cc1)c1ccccc1 (stereo not shown) [2-oxo-N-(3-phenyl-3-(4-(trifluoromethyl)phenoxy)propyl)propanamide]
infarct volume reduced to, as compared to the control group [1, 7]: 58.7%

SMILES: CC(=O)C(=O)N(C)CCC(Oc1ccc(C(F)(F)F)cc1)c1ccccc1 (stereo not shown) [N-methyl-2-oxo-N-(3-phenyl-3-(4-(trifluoromethyl)phenoxy)propyl)propanamide]
infarct volume reduced to, as compared to the control group [1, 7]: 16.0%

SMILES: CCOC(=O)C(C)=O [ethyl pyruvate]
infarct size reduced to ([2]; abdominally administered within 12 hours after ischemia-reperfusion): ≤ 50%
infarct size reduced by ([2]; treatment within 24 hours): about 20%
